# Test results from patent US20220041578A1, “ISOINDOLINE COMPOUND, AND PREPARATION METHOD, PHARMACEUTICAL COMPOSITION, AND APPLICATION OF ISOINDOLINE COMPOUND” (Shanghai Institute of Meteria Medica, Chinese Academy of …, priority 2018, published 2022).
# Where two headings read alike, the source gives them in different places.
# Legend:
# Format in all cases: cell-based
# [1] = tested on: MM.1S cells; assay: Effect of the compound on the proliferation of MM.1S cells (MTS); details: Homo sapiens, MM1.S, 168 h, 7 days, read-out: Cell inhibitory activity (IC50)
# Summary of the method: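 In 1640 medium + 10% FBS, 20,000 cells per well were treated with 5-fold compound dilutions at 0.2% DMSO for 7 days at 37° C., 5% CO2. MTS was read after 3–4 h as OD490−OD690, inhibition was calculated against DMSO and blank wells, and IC50 was fitted; three independent experiments were run.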
# [2] = tested on: MV-4-11 cells; assay: Effect of the compound on proliferation of MV-4-11 cells (MTS); details: Homo sapiens
# Procedure: MV-4-11 cells were cultured with IMDM plus 10% fetal bovine serum and collected. The cell concentration was diluted according to the action time of 7 days, and 180 ul of cell suspension was added to each well of a 96-well cell plate to make the cell count to be 2000. 20 ul of DMSO with a final concentration of 0.2% was added to the control cell wells. The compound was diluted 5-fold with the 10 mM stock solution, and 20 ul was also added to the compound cell wells (the final concentration of DMSO was 0.2%). The cells were placed in a 37° C., 5% CO2 incubator and incubated for 7 days. After preparing the reaction solution according to the MTS kit (Promega, G5430), 20 μL was added to each well, incubated in a 37° C., 5% CO2 incubator for 3-4 h. Read the 490 nm absorbance value with a microtiter plate, and used the 690 nm absorbance value as the background value and OD490-OD690 as the final initial data. The formula for calculating the inhibition rate of the compound was: inhibition rate=(OD DMSO-ODcompound)/(ODDMSO-Oblank)×100%. The compound's proliferation inhibition IC50 was fitted by Graph Pad Prism 5.0. The experiment was repeated three times, and three parallel experiments were used to calculate the average and standard deviation each time. The cell viability test results were shown in Table 3: A means cell viability IC50<1 μM, B means cell viability 1 μM≤IC50≤20 μM, C means cell viability IC50>20 μM.
# [3] = tested on: prostate cancer cells DU145; assay: Proliferation of other tumor cells, DU145 (WST-8); details: Homo sapiens, DU-145, 96 h, 4 days, read-out: Inhibitory activity on proliferation, DU145 (IC50)
# Procedure: (§1) The human triple negative breast cancer cells MDA-MB-468 and MDA-MB-231 used in this experiment were purchased from the Shanghai Cell Bank, in which L-15 medium added with 10% fetal bovine serum (FBS) and 1% double antibody was used. At 37° C., MDA-MB-468 and MDA-MB-231 cells were cultured in an incubator without CO2. Colorectal cancer cells HCT-116 were cultured in McCOY's 5A medium with 1% double antibody and 10% fetal bovine serum (FBS); prostate cancer cells DU145 were cultured in MEM medium with 1% double antibody and 10% fetal bovine serum (FBS); prostate cancer cells PC-3 were cultured in F-12 K medium with 1% double antibody and 10% fetal bovine serum (FBS); grew at 37° C., 5% CO2.
# (§2) In the cell activity test experiment, 90 μL cell suspension with appropriate concentration was added to a 96-well cell culture plate according to the cell growth, each compound to be tested was gradient diluted with the corresponding medium, 10 μL diluted compound was added to 90 μL cells, and then incubated at 37° C. for 4 days. Cell proliferation was analyzed by WST-8, which could be reduced by lactate dehydrogenase in the cells to a yellow formazan. 10 μL of WST-8 reagent (DOJINDO) was added to the cells and reacted for more than 1 hour at 37° C., DMSO-treated cells were used as […]. The absorption value of 490 nm was read by enzyme-labeled plate, and the absorption value of 690 nm was taken as the background value, and OD490-OD690 was taken as the final original data, and the data was processed by GraphPad Prism6 software. The formula for calculating the inhibition rate of the compound was: inhibition rate=(ODDMSO−ODcompound)/(ODDMSO−Oblank)×100%. The compound's proliferation inhibition IC50 was fitted by Graph Pad Prism 5.0. The experiment was repeated three times, and three parallel experiments were used to calculate the average and standard deviation each time. The cell viability test results were shown in Table 4: A means cell viability IC50<1 μM, B means cell viability 1 μM≤IC50≤20 μM, C means cell viability IC50>20 μM, NT means not tested.
# [4] = tested on: triple negative breast cancer cells MDA-MB-231; assay: Proliferation of other tumor cells, MDA-MB-231 (WST-8); details: Homo sapiens, 96 h, MDA-MB-231 cells, 4 days, read-out: Inhibitory activity on proliferation, MDA-MB-231 (IC50)
# Procedure: as §1, §2
# [5] = tested on: Colorectal cancer cells HCT-116; assay: Proliferation of other tumor cells, HCT-116 (WST-8); details: Homo sapiens, 96 h, HCT-116 cells, 4 days, read-out: Inhibitory activity on proliferation, HCT-116 (IC50)
# Procedure: as §1, §2
# [6] = tested on: IFNγ; assay: IFNγ expression change in anti-human CD3 stimulated PBMC (ELISA); details: compound 10 nM, anti-human CD3 10 ug/ml, 24 hours
# Procedure: All operations of this experiment were carried out according to the conventional experimental process of this kind of experiment at present. Peripheral blood from healthy volunteers was collected by routine standard procedure and cultured in 1640 medium (+10% FBS) to obtain PBMC. After recovery, PBMC was centrifuged and resuspended in serum-free medium. After counting, adjusted the density to be 6.25×10^5/ml; then inoculated 160 ul to a 96-well plate, 2 holes each, 1×10^5/well; 20 ul 10× compound and DMSO were added, and incubated for 1 hour in an incubator; then 20 ul 10× anti-human CD3 was added resulting the final concentration of 10 ug/ml and incubated in an incubator for 24 hours. Centrifuged the cell plate at 1500 rpm and aspirated 50 ul supernatant according to the ELISA operation. After operating according to the kit, a microplate reader was used to read at 450 nm. The concentration of compound was 10 nM, and DMSO was added as control group. Materials used in this experiment: 96 well plate (Corning, #3599), ELISA kit (Thermo), LPS (Sigma, USA). It was found from the test results of the following table that the compounds of the examples of the present invention could be used to regulate the expression of IFNγ.
structure (smiles),measurement,setting,value
"Nc1cccc2c1CN(C1CCC(=O)NC1=O)C2=O (stereo not shown) [Lenalidomide, lenalidomide, reference compound]",IC50,[1],< 0.15 µM
same,IC50,"[2]; MV4-11, 168 h, 7 days, MTS, read-out: Inhibitory activity (IC50)",> 20 µM
same,IC50,"[2]; MV4-11, read-out: cytostatic activity (IC50) on MV-4-11 cells",> 20 µM
same,IC50,[3],> 20 µM
same,IC50,[4],> 20 µM
same,IC50,[5],> 20 µM
same,Increase multiple of IFNγ expression,[6],>1.5
